{"source": "patent US20130158098A1", "about": "“Alkenyl Substituted Cycloaliphatic Compounds as Chemical Inducers of Proximity” (priority 2010, published 2013)", "target": "T1, VP16-PYLcs and Gal4 DBD-ABIcs (Arabidopsis thaliana, UniProt Q8VZS8)", "T1 construct": "HA (from the reverse primer); expressed in transfected cells; host or cells: CHO; also HEK 293/293T, NIH3T3, COS7, B35, Jurkat, E14, TC1, MEF", "T1 sequence (Q8VZS8 33-209)": "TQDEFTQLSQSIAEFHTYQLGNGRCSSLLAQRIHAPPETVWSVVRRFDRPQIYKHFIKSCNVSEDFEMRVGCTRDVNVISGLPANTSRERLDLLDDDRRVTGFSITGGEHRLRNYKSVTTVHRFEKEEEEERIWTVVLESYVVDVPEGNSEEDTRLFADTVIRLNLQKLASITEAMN", "T1 sequence (P49597 126-423 partner)": "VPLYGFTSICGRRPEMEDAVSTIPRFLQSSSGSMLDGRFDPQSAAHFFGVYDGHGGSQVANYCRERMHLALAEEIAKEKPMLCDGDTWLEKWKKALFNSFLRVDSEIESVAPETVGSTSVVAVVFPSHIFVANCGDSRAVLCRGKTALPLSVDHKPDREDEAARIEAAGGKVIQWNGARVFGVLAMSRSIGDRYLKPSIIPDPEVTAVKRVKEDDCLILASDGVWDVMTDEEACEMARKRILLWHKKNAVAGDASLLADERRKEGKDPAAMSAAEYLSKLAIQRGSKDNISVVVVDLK", "test": "ABA-induced luciferase activation (ABA-activator cassette + UAS-luciferase reporter)", "assay_type": "cell-based", "source_text": "Activation construct: A fragment of PYL1 (one of PYR/PYL/RCAR members) (aa 33-209, also referred to as “PYLcs”) was linked to a transcriptional activation domain and a fragment of ABI1 (one of PP2C members) (aa 126-423, SEQ ID NO:2, also referred to as “ABIcs”) was linked to a DNA binding domain using recombinant DNA methods. In the constructs illustrated in FIG. 1 and FIG. 2, PYL1 (“PYLcs”) is fused to the VP16 activation domain and ABI1 (“ABIcs”) is fused to the Gal4 DNA binding domain. These two regulatory elements are linked by IRES and driven by the SV40 early promoter. Reporter constructs: Full length Luciferase is driven by Fos gene minimal promoter with 5 copies of Gal4 DNA binding sites immediately upstream of Fos promoter. GFP reporter is driven by IL2 minimal promoter with 5×Gal4 DNA binding sites upstream.\nCHO, HEK 293T, NIH 3T3, B35, MEF, and COS7 cells were cultured in Dulbecco's modified Eagle's medium (DMEM) (Gibco) with 10% FBS (Omega Scientific), 1× glutamate (Gibco), and 1× penicillin/streptomycin (Pen/Strep; Gibco). Jurkat cells were cultured in RPMI 1640 (Gibco) with 10% FBS, 1× glutamate, and 1×Pen/Strep. E14 and TC1 were cultured in Knockout DMEM (Gibco) with 7.5% ES FBS (Applied Stem Cell), 7.5% knockout SR (Gibco), 1× Hepes (Gibco), 1× sodium pyruvate (Gibco), 1×MEM NEAA (nonessential amino acids; Gibco), 1×2-mercaptoethanol (Gibco), 1× glutamate, 1×Pen/Strep, and leukemia inhibitory factor (LIF) on gelatin (Millipore)-coated plates. Cells (50,000 to 200,000) were plated in a well of a 24-well plate the day before transfection. An amount of 0.1 to 0.5 μg of DNA of each construct was mixed with 50× (v/w) Opti-MEM (Gibco), and then 3× (v/w) FuGENE HD (Roche) was added and thoroughly mixed. After incubation at room temperature for 20 min, the mixture was added to the cells and cultured for 24 to 48 hours before experiments were performed.\nCells in 24-well plates were lysed with 100 μl of 1× Passive Lysis Buffer (Promega) at room temperature for 10 min on a shaker (˜80 rpm). Cell lysates were then spun down (16,000 g) and 10 μl of supernatant was used for luciferase assay. Luciferase substrate solution [100 μl; 5 mg of D-luciferin (BD Biosciences) and 7 mg of coenzyme A (Sigma) in 33 ml of luciferase reading buffer: 20 mM tricine, 1.07 mM (MgCO3)4Mg(OH)2.5H2O, 2.67 mM MgSO4, 0.1 mM EDTA, 33.3 mM dithiothreitol (DTT), and 0.53 mM ATP in water] was added to the cell lysates, and signal was read with a 3-s delay and 1-s integration with a Turner BioSystem Modulus microplate reader. Obtained data were analyzed by Prism 5 (GraphPad Software).\nThe inducible gene activation module illustrated in FIG. 1 was introduced into a mammalian cell line (CHO, Chinese Hamster Ovary cells) along with a luciferase reporter to test the inducibility of gene activation by ABA, as shown in FIG. 2.\nTo assay the ability of ABA to induce effective proximity of chimeric proteins, the ability of ABA to reconstitute protein domains was tested. In this strategy, ABA was used to induce the proximity of the yeast Gal4 DNA binding domain (Gal4 DBD) to the herpes simplex virus VP16 transactivation domain (VP16AD) (FIG. 2B). […] The VP16AD, when tethered to DNA binding domains, strongly activates transcription but cannot act without proximity to a DNA binding domain. To test gene activation by ABA-induced proximity of Gal4 DBD and VP16AD, an ABA-activator cassette was constructed by fusing Gal4 DBD to the domain of ABI1 that interacts with PYL1 (the complementary surface of ABI1, or “ABIcs”) and VP16AD to the domain of PYL1 that interacts with ABI1 (the complementary surface of PYL1, or “PYLcs”) (FIG. 2B).\nThe ABA-induced domain reconstitution leading to induction of gene expression was compared to a similar system in Chinese hamster ovary (CHO) cells controlled by Rap, which has wild-type FKBP12 and Frb replacing ABIcs and PYLcs, respectively, in the chimeric proteins. […]", "key": {"[1]": {"conditions": "E14 and CHO cells (FIG. 12D, FIG. 19)"}}, "data": [{"smiles": "CC1=CC(=O)CC(C)(C)C1(O)/C=C/C(C)=C/C(=O)O", "note": "(centres unmarked) [ABA, abscisic acid]", "values": [{"measurement": "gene activation in different cell types", "setting": "100 μM, 24 hours, CHO, NIH3T3, HEK293T, COS7, B35, Jurkat, E14, TC1, MEF", "result": "observed in all cell types tested"}, {"measurement": "change in protein activity relative to untreated cells (factor)", "setting": "ABA system", "result": "> 1000"}, {"measurement": "specificity of luciferase induction (ABA vs Rap protein pairs)", "setting": "CHO and NIH 3T3 cells, 24 hours", "result": "only induced by matching small-molecule and dimerizing protein pairs"}, {"measurement": "relative activation change compared with Rap", "setting": "CHO cells", "result": "comparable"}, {"measurement": "reversibility of luciferase transcription upon removal", "setting": "CHO cells, 100 μM for 24 hours then ABA-free media", "result": "fully reversible"}, {"measurement": "dose response of transactivation", "setting": "CHO cells, 24 hours", "result": "large linear range"}, {"measurement": "time for gene activation to reverse to background after withdrawal", "setting": "CHO cells, induced 24 hours, washed five times with fresh medium", "result": "≤ 24", "unit": "h"}, {"measurement": "time at which activation of luciferase was first observed after addition", "setting": "[1]", "result": 1.5, "unit": "h"}, {"measurement": "time to reach maximum luciferase activation", "setting": "[1]", "result": "≤ 24", "unit": "h"}, {"measurement": "relative activation change compared with Rap", "setting": "E14 cells", "result": "much higher"}, {"measurement": "luciferase production induced", "setting": "murine embryonic stem (ES) cells, NIH 3T3 and HEK 293T cells, 24 hours", "result": "more than three orders of magnitude"}]}]}
